{
  "source": "ChEMBL document CHEMBL1154104",
  "about": "“S- and C-nucleosidoquinazoline as new nucleoside analogs with potential analgesic and anti-inflammatory activity” (Eur J Med Chem, 2009)",
  "key": {"Rattus norvegicus [1]": {"system": "Rattus norvegicus", "assay": "Antiinflammatory activity against carrageenan-induced paw edema in Sprague-Dawley rat at 70 mg/kg, po pretreated 1 hr before carrageenan challenge measured after 4 hrs by plethysmometer", "type": "functional"}, "Mus musculus": {"system": "Mus musculus", "assay": "Analgesic activity in Swiss albino mouse assessed as inhibition of acetic acid-induced writhing response at 70 mg/kg, po pretreated 1 hr before acetic acid challenge", "type": "functional"}, "Rattus norvegicus [2]": {"system": "Rattus norvegicus", "assay": "Gastrointestinal toxicity in Wistar rat assessed as ulcerogenic induces at 200 mg/kg, po after 17 hrs", "type": "organism-based", "design": "dose 200 mg/kg, route oral", "conditions": "in vivo"}},
  "data": [
    {"molecule": "COc1ccc(C2NC(=S)NC3=C2C(=O)CC(C)(C)C3)cc1", "note": "(centres undefined)", "values": [
      {"measurement": "inhibition in vivo at 70 mg/kg", "setting": "Rattus norvegicus [1]", "result": 71, "unit": "%"}
    ]},
    {"molecule": "CC1(C)CC(=O)C2=C(C1)N=C(NN)NC2c1ccc(Cl)cc1", "note": "(centres undefined)", "values": [
      {"measurement": "inhibition in vivo at 70 mg/kg", "setting": "Rattus norvegicus [1]", "result": 71, "unit": "%"}
    ]},
    {"molecule": "CC1(C)CC(=O)C2=C(C1)N=C1NN=C([C@H](O)[C@@H](O)[C@@H](O)[C@H](O)CO)N1C2c1ccc(Cl)cc1", "note": "(some centres undefined)", "values": [
      {"measurement": "inhibition in vivo at 70 mg/kg", "setting": "Mus musculus", "result": 59, "unit": "%"},
      {"measurement": "inhibition in vivo at 70 mg/kg", "setting": "Rattus norvegicus [1]", "result": 85, "unit": "%"},
      {"measurement": "UI", "setting": "Rattus norvegicus [2]", "result": 0.8}
    ]},
    {"molecule": "CC1(C)CC(=O)C2=C(C1)N=C1NN=C([C@H](O)[C@@H](O)[C@H](O)CO)N1C2c1ccc(Cl)cc1", "note": "(some centres undefined)", "values": [
      {"measurement": "inhibition in vivo at 70 mg/kg", "setting": "Mus musculus", "result": 71, "unit": "%"},
      {"measurement": "inhibition in vivo at 70 mg/kg", "setting": "Rattus norvegicus [1]", "result": 82, "unit": "%"},
      {"measurement": "UI", "setting": "Rattus norvegicus [2]", "result": 0.6}
    ]},
    {"molecule": "CC1(C)CC(=O)C2=C(C1)N=C1NN=C([C@@H](O)[C@@H](O)[C@H](O)[C@H](O)CO)N1C2c1ccc(Cl)cc1", "note": "(some centres undefined)", "values": [
      {"measurement": "inhibition in vivo at 70 mg/kg", "setting": "Mus musculus", "result": 57, "unit": "%"},
      {"measurement": "inhibition in vivo at 70 mg/kg", "setting": "Rattus norvegicus [1]", "result": 82, "unit": "%"},
      {"measurement": "UI", "setting": "Rattus norvegicus [2]", "result": 0.6}
    ]},
    {"molecule": "CC1(C)CC(=O)C2=C(C1)NC(=S)NC2c1ccccc1", "note": "(centres undefined)", "values": [
      {"measurement": "inhibition in vivo at 70 mg/kg", "setting": "Rattus norvegicus [1]", "result": 50, "unit": "%"}
    ]},
    {"molecule": "CC1(C)CC(=O)C2=C(C1)N=C1NN=C([C@@H](O)[C@@H](O)[C@H](O)CO)N1C2c1ccc(Cl)cc1", "note": "(some centres undefined)", "values": [
      {"measurement": "inhibition in vivo at 70 mg/kg", "setting": "Mus musculus", "result": 56.6, "unit": "%"},
      {"measurement": "inhibition in vivo at 70 mg/kg", "setting": "Rattus norvegicus [1]", "result": 82, "unit": "%"},
      {"measurement": "UI", "setting": "Rattus norvegicus [2]", "result": 0.5}
    ]},
    {"molecule": "CC1(C)CC(=O)C2=C(C1)N=C1NN=C([C@@H](O)[C@H](O)[C@H](O)CO)N1C2c1ccc(Cl)cc1", "note": "(some centres undefined)", "values": [
      {"measurement": "inhibition in vivo at 70 mg/kg", "setting": "Mus musculus", "result": 59.5, "unit": "%"},
      {"measurement": "inhibition in vivo at 70 mg/kg", "setting": "Rattus norvegicus [1]", "result": 84, "unit": "%"},
      {"measurement": "UI", "setting": "Rattus norvegicus [2]", "result": 0.5}
    ]},
    {"molecule": "CC(=O)OC[C@H]1O[C@@H](SC2=NC3=C(C(=O)CC(C)(C)C3)C(c3ccc(Cl)cc3)N2)[C@H](OC(C)=O)[C@@H]1OC(C)=O", "note": "(some centres undefined)", "values": [
      {"measurement": "inhibition in vivo at 70 mg/kg", "setting": "Rattus norvegicus [1]", "result": 76, "unit": "%"}
    ]},
    {"molecule": "CC1(C)CC(=O)C2=C(C1)N=C1NN=C(c3ccc(Cl)cc3)N1C2c1ccc(Cl)cc1", "note": "(centres undefined)", "values": [
      {"measurement": "inhibition in vivo at 70 mg/kg", "setting": "Rattus norvegicus [1]", "result": 68, "unit": "%"}
    ]},
    {"molecule": "CC1(C)CC(=O)C2=C(C1)N=C1NN=C([C@H](O)[C@@H](O)[C@H](O)[C@H](O)CO)N1C2c1ccc(Cl)cc1", "note": "(some centres undefined)", "values": [
      {"measurement": "inhibition in vivo at 70 mg/kg", "setting": "Mus musculus", "result": 73, "unit": "%"},
      {"measurement": "inhibition in vivo at 70 mg/kg", "setting": "Rattus norvegicus [1]", "result": 86, "unit": "%"},
      {"measurement": "UI", "setting": "Rattus norvegicus [2]", "result": 0.5}
    ]},
    {"molecule": "CC(=O)OC[C@H]1O[C@@H](SC2=NC3=C(C(=O)CC(C)(C)C3)C(c3ccc(Cl)cc3)N2)[C@H](OC(C)=O)[C@@H](OC(C)=O)[C@H]1OC(C)=O", "note": "(some centres undefined)", "values": [
      {"measurement": "inhibition in vivo at 70 mg/kg", "setting": "Rattus norvegicus [1]", "result": 76, "unit": "%"}
    ]},
    {"molecule": "CC1(C)CC(=O)C2=C(C1)NC(=S)NC2c1ccc(Cl)cc1", "note": "(centres undefined)", "values": [
      {"measurement": "inhibition in vivo at 70 mg/kg", "setting": "Rattus norvegicus [1]", "result": 69, "unit": "%"}
    ]},
    {"molecule": "CC(=O)OC[C@H]1O[C@@H](SC2=NC3=C(C(=O)CC(C)(C)C3)C(c3ccc(Cl)cc3)N2)[C@H](OC(C)=O)[C@@H](OC(C)=O)[C@@H]1OC(C)=O", "note": "(some centres undefined)", "values": [
      {"measurement": "inhibition in vivo at 70 mg/kg", "setting": "Rattus norvegicus [1]", "result": 75, "unit": "%"}
    ]},
    {"molecule": "CC(C)Cc1ccc(C(C)C(=O)O)cc1", "note": "(centres undefined) [IBUPROFEN]", "values": [
      {"measurement": "inhibition in vivo at 70 mg/kg", "setting": "Mus musculus", "result": 83.5, "unit": "%"},
      {"measurement": "inhibition in vivo at 70 mg/kg", "setting": "Rattus norvegicus [1]", "result": 92, "unit": "%"},
      {"measurement": "UI", "setting": "Rattus norvegicus [2]", "result": 1.8}
    ]}
  ]
}
